BindingDB's records for doi:10.1016/j.bmcl.2004.04.065 (Eli Lilly, 2004)

target: TGF-beta receptor type-1; assay: Inhibitory activity against TGF-beta type I receptor

Row | SMILES | IC50 [nM]
1 | CCc1cccc(-c2nn3c(c2-c2ccnc4ccccc24)CCC3)n1 [4-[2-(6-Ethyl-pyridin-2-yl)-5,6-dihydro-4H-pyrrolo[1,2-b]pyrazol-3-yl]-quinoline] | 71
2 | Cc1cccc(-c2nn3c(c2-c2ccnc4cc(Cl)ccc24)CCC3)n1 [7-chloro-4-(2-(6-methylpyridin-2-yl)-5,6-dihydro-4H-pyrrolo[1,2-b]pyrazol-3-yl)quinoline] | 48
3 | CCS(=O)(=O)c1ccc2c(-c3c(-c4ccccn4)nn4c3CCC4)ccnc2c1 [7-Ethanesulfonyl-4-(2-pyridin-2-yl-5,6-dihydro-4H-pyrrolo[1,2-b]pyrazol-3-yl)-quinoline] | 9290

The next lines start with the values.

Row | IC50 [nM] | SMILES
4 | 151 | Fc1ccc(-c2nn3c(c2-c2ccnc4ccccc24)CCC3)nc1 [4-[2-(5-Fluoro-pyridin-2-yl)-5,6-dihydro-4H-pyrrolo[1,2-b]pyrazol-3-yl]-quinoline]
5 | 104 | c1ccc(-c2nn3c(c2-c2ccnc4ccccc24)CCC3)nc1 [4-(2-(pyridin-2-yl)-5,6-dihydro-4H-pyrrolo[1,2-b]pyrazol-3-yl)quinoline]
6 | 110 | CCSc1ccc2c(-c3c(-c4ccccn4)nn4c3CCC4)ccnc2c1 [7-Ethylsulfanyl-4-(2-pyridin-2-yl-5,6-dihydro-4H-pyrrolo[1,2-b]pyrazol-3-yl)-quinoline]
